Among the data in ChEMBL document CHEMBL5291721, “A preclinical secondary pharmacology resource illuminates target-adverse drug reaction associations of marketed drugs” (Nat Commun, 2023) are AC50 values, retold here.

Test [1] addresses Vascular endothelial growth factor receptor 2 (Homo sapiens, UniProt P35968). It is filed as functional.
A further test addresses Estrogen receptor beta (Homo sapiens, UniProt Q92731).
A further test has as its target T1, Adenosine receptor A3 (Homo sapiens, UniProt P0DMS8).
T1 sequence (P0DMS8 whole entry): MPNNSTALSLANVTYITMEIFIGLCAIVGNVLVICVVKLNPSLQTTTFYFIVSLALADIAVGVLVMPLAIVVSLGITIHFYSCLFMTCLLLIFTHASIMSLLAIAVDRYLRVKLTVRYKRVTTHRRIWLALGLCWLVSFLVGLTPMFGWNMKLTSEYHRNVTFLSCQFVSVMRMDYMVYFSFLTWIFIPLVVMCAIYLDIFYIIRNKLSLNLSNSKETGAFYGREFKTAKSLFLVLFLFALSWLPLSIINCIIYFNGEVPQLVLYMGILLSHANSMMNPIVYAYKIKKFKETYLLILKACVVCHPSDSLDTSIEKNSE

The target of test [2] is Gamma-aminobutyric acid receptor subunit alpha-1/alpha-2/beta-2/gamma-2 (Homo sapiens, UniProt P14867+P18507+P47869+P47870). The format is protein-complex assay.
Sequence of Gamma-aminobutyric acid receptor subunit alpha-1/alpha-2/beta-2/gamma-2 (Homo sapiens, UniProt P14867+P18507+P47869+P47870) (P14867 whole entry): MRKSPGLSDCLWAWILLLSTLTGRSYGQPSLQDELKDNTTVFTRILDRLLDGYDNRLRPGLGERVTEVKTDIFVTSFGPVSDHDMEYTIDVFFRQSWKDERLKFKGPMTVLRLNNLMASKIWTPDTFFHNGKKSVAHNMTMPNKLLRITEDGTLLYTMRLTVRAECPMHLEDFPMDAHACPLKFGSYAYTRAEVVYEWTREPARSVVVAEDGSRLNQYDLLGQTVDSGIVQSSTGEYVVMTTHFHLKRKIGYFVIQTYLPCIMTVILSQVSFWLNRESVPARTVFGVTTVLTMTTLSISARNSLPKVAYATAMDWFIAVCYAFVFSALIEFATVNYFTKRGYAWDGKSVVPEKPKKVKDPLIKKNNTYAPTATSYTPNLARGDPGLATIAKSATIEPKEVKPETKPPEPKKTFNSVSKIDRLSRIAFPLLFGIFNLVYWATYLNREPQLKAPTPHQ
Sequence of Gamma-aminobutyric acid receptor subunit alpha-1/alpha-2/beta-2/gamma-2 (Homo sapiens, UniProt P14867+P18507+P47869+P47870) (P47870 whole entry): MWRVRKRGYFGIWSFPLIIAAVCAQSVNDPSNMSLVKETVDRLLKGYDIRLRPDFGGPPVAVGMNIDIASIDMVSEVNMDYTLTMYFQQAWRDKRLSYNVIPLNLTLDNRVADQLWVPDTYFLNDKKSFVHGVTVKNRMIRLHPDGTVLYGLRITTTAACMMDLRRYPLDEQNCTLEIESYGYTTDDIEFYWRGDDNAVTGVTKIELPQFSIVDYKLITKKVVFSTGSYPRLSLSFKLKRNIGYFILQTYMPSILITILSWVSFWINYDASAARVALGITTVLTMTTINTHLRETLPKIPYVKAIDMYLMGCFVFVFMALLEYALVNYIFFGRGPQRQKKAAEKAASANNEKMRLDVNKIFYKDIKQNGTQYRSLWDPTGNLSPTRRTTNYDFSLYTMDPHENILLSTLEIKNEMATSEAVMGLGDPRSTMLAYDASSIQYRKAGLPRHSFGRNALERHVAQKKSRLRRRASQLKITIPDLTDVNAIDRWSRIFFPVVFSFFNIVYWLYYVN
Sequence of Gamma-aminobutyric acid receptor subunit alpha-1/alpha-2/beta-2/gamma-2 (Homo sapiens, UniProt P14867+P18507+P47869+P47870) (P18507 whole entry): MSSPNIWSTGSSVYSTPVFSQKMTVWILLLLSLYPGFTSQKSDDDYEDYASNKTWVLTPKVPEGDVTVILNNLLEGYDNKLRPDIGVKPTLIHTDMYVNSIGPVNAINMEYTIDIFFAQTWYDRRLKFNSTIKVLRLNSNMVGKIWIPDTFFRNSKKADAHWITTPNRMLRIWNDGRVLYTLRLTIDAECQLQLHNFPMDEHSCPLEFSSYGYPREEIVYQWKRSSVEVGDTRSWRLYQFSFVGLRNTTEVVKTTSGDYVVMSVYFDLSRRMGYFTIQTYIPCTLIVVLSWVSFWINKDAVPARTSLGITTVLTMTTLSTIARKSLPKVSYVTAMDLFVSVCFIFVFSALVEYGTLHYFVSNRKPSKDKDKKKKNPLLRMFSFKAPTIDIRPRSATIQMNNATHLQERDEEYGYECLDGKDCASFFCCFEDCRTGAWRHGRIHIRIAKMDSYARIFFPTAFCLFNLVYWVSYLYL
Sequence of Gamma-aminobutyric acid receptor subunit alpha-1/alpha-2/beta-2/gamma-2 (Homo sapiens, UniProt P14867+P18507+P47869+P47870) (P47869 whole entry): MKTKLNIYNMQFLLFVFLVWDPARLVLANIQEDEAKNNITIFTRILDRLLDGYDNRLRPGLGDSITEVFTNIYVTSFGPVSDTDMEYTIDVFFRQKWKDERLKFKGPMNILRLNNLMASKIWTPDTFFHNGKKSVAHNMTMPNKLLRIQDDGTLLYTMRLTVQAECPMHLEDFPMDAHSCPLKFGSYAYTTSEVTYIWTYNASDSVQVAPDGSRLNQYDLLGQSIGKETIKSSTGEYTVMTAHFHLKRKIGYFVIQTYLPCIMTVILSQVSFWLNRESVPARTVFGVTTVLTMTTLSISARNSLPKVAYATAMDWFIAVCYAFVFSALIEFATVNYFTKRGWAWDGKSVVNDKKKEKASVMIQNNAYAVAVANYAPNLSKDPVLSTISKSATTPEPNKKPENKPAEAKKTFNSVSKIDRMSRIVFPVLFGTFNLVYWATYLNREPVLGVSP
Test [3] has as its target 5-hydroxytryptamine receptor 2B (Homo sapiens, UniProt P41595). It is filed as functional, cell-based.
The target in a further test is Mu-type opioid receptor (Homo sapiens, UniProt P35372).
Sequence of Mu-type opioid receptor (P35372 whole entry): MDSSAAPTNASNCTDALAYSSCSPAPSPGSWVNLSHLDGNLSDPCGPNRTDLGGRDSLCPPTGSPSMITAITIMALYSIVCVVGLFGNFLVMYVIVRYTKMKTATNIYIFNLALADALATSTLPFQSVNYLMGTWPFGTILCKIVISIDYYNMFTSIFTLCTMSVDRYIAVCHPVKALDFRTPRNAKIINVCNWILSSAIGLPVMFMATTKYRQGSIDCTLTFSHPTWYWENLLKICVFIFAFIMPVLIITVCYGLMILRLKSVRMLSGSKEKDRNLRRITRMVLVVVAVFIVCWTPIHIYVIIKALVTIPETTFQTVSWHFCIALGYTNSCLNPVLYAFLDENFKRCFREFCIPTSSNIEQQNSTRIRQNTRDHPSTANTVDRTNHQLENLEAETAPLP
A further test deals with T2, Androgen receptor (Homo sapiens, UniProt P10275).
T2 sequence (P10275 whole entry): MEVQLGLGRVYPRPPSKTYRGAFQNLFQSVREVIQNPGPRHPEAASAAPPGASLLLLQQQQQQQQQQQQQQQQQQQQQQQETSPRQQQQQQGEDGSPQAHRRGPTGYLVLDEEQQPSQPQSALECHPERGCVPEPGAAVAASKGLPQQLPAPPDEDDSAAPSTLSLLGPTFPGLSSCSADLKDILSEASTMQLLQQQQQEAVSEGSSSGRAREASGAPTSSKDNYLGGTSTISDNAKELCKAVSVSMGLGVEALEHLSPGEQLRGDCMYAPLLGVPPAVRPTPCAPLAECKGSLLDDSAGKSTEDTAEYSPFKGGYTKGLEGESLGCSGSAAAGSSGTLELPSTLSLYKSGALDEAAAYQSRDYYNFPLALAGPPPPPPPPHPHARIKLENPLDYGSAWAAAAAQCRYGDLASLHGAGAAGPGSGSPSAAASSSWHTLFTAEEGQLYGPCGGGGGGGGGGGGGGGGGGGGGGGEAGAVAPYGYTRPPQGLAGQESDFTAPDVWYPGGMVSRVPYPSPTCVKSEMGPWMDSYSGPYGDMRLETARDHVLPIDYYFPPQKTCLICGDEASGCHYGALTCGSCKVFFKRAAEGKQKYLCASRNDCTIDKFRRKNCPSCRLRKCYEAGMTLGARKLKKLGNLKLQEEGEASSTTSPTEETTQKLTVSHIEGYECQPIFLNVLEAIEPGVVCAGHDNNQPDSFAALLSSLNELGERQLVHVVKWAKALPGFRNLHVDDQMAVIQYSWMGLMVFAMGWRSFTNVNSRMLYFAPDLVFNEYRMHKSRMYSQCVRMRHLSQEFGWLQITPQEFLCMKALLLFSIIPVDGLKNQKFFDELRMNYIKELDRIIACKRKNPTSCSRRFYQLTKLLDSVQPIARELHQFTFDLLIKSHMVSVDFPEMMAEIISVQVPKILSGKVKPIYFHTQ

The target in test [4] is Sodium-dependent serotonin transporter (Homo sapiens, UniProt P31645).
The target in test [5] is T3, 5-hydroxytryptamine receptor 1A (Homo sapiens, UniProt P08908).
T3 sequence (P08908 whole entry): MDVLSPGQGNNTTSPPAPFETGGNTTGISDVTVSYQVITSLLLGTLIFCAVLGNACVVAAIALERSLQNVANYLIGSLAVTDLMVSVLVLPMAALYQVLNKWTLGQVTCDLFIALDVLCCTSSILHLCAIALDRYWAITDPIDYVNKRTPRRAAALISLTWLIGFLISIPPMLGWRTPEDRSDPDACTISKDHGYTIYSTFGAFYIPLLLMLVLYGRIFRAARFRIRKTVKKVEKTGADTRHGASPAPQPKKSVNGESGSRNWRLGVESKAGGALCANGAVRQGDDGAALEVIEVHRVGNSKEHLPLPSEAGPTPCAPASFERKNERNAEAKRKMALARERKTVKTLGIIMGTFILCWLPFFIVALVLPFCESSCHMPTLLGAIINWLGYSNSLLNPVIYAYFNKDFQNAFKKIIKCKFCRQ

In the next test the target is Histamine H1 receptor (Homo sapiens, UniProt P35367). It is filed as functional, cell-based.
Sequence of Histamine H1 receptor (P35367 whole entry): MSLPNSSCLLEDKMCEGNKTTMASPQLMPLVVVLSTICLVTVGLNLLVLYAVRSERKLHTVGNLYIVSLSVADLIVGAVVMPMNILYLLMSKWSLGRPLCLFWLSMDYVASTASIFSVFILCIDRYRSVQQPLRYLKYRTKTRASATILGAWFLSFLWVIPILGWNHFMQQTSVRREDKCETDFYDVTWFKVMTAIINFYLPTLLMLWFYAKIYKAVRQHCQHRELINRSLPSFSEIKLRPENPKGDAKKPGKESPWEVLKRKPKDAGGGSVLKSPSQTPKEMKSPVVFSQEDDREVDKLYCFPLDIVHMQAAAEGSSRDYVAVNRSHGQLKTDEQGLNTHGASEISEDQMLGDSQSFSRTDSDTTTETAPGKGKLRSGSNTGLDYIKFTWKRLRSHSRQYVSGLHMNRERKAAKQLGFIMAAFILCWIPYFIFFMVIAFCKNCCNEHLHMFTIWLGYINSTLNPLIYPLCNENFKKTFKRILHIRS
Test [6] concerns the target 5-hydroxytryptamine receptor 2A (Homo sapiens, UniProt P28223).
Test [7] addresses T4, Gamma-aminobutyric acid receptor subunit alpha-1/alpha-2/beta-2/gamma-2 (Homo sapiens, UniProt P14867+P47870+P18507+P47869). The format is protein-complex assay.
Another test concerns the target T5, Estrogen receptor (Homo sapiens, UniProt P03372).
T5 sequence (P03372 whole entry): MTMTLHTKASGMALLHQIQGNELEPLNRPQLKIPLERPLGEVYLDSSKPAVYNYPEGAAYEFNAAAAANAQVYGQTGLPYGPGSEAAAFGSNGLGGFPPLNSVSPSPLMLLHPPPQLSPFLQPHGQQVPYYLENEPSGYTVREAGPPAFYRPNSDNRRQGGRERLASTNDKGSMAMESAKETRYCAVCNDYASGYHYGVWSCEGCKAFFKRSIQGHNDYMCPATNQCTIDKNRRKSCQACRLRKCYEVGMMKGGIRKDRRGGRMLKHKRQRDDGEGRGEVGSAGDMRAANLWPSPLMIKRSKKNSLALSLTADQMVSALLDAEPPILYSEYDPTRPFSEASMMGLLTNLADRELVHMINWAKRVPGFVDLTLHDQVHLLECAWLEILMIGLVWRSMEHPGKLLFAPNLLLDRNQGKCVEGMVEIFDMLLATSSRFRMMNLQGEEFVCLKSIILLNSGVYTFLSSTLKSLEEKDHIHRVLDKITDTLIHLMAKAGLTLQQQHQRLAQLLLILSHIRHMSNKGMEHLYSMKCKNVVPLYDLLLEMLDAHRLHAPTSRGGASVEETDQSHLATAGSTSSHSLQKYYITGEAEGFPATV

For test [8], the target named is T4, Gamma-aminobutyric acid receptor subunit alpha-1/alpha-2/beta-2/gamma-2. The format is functional, cell-based.
Note: assay procedure not described here.

T4 sequence (P14867 whole entry): as the sequence (P14867 whole entry) above
T4 sequence (P47870 whole entry): as the sequence (P47870 whole entry) above
T4 sequence (P18507 whole entry): as the sequence (P18507 whole entry) above
T4 sequence (P47869 whole entry): as the sequence (P47869 whole entry) above
Sequence of 5-hydroxytryptamine receptor 2B (P41595 whole entry): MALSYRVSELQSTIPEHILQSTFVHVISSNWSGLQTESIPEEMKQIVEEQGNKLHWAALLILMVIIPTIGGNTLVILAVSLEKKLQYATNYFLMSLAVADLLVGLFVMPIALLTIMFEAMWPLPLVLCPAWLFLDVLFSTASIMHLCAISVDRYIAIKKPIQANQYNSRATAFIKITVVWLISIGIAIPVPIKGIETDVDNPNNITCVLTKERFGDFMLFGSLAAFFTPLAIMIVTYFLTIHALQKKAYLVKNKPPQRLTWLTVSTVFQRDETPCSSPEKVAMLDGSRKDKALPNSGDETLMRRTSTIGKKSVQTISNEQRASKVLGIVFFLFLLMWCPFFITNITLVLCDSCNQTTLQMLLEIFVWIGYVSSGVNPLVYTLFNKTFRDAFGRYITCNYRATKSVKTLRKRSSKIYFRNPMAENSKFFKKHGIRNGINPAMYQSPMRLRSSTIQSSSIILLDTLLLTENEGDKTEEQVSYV
Sequence of Vascular endothelial growth factor receptor 2 (P35968 whole entry): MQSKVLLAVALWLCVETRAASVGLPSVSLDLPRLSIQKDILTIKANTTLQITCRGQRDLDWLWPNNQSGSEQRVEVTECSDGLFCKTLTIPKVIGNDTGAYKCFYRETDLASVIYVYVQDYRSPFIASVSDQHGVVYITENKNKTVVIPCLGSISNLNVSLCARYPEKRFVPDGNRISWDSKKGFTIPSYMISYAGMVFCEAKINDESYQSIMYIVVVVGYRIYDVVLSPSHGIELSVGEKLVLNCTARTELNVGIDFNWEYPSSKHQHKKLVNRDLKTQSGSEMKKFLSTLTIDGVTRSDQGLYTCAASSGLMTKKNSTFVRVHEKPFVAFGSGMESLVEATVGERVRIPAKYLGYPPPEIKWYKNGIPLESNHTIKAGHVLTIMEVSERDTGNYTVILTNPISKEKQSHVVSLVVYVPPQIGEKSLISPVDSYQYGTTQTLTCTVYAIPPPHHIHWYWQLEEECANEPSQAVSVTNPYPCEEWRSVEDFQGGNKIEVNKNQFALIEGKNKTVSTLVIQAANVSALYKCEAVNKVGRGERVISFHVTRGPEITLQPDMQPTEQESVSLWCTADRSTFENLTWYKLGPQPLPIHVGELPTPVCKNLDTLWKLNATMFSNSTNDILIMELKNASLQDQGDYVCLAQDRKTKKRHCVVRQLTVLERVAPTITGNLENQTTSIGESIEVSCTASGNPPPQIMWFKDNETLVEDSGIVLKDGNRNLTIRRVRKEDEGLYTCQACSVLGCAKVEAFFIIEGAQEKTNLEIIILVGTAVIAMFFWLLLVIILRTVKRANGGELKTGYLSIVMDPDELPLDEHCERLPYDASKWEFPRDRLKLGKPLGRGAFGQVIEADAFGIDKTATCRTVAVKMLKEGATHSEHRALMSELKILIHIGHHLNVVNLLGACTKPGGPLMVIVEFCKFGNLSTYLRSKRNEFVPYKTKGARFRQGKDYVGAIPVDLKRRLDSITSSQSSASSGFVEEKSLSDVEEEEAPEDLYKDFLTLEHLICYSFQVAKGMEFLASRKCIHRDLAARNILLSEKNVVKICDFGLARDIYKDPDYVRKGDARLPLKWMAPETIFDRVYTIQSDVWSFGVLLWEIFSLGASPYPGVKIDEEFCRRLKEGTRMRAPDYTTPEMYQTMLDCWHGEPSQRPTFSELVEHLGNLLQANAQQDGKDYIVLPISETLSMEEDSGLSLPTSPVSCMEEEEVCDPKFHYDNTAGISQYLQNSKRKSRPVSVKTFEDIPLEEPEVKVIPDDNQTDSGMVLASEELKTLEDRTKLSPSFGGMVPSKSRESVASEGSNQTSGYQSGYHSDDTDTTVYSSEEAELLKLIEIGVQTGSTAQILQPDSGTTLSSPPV

Regarding `CC(CC1c2ccccc2CCc2ccccc21)CN(C)C` (centres undefined) [BUTRIPTYLINE], the AC50 in test [1] is > 30 µM.

Take `Cc1c(OCC(F)(F)F)ccnc1C[S+]([O-])c1nc2ccccc2[nH]1` (centres undefined) [LANSOPRAZOLE]: the AC50 on Estrogen receptor beta was > 30 µM.

Turning to `CO[C@]12C[C@@H](COC(=O)c3cncc(Br)c3)CN(C)[C@@H]1Cc1cn(C)c3cccc2c13` [NICERGOLINE], the half-maximal activity concentration (AC50) is 22.4 µM at Adenosine receptor A3; > 10 µM in test [2]; > 30 µM in test [3]; 2.38 µM at Mu-type opioid receptor; > 30 µM at Androgen receptor; 7.26 µM in [4]. This compound registered an AC50 in test [5] of 0.003 µM.

Take `NC(=O)CN1CC(O)CC1=O` (centres undefined) [OXIRACETAM]: at Histamine H1 receptor, the AC50 is > 30 µM.

`Cc1nnc2n1-c1ccc(Cl)cc1C(c1ccccc1Cl)=NC2` [TRIAZOLAM] showed an AC50 in test [6] of 3.2 µM.

On to THIMEROSAL, for which the AC50 (in [7]; at Estrogen receptor; in test [8]) was > 30 µM throughout.

Broadly, the AC50 is the concentration giving half of the maximal activity seen. Low readings indicate greater potency, high ones weaker potency.
